Results published in paper PMC10786919, “Design-rules for stapled peptides with in vivo activity and their application to Mdm2/X antagonists” (Nature Communications, 2024).
In brackets after ≈: the same amount, converted by molar mass. Read-outs that look alike come from different tables or passages of the source. Positions of bridges follow the written chain, without caps; N, C: chain ends. Non-standard residues stand in square brackets, D forms with d. Residues, ends and D or L forms follow the SMILES beside them. Lys(N3) = [N-]=[N+]=NCCCC[C@H](N)C(=O)O; R8 = C=CCCCCCC[C@@](C)(N)C(=O)O; Cba = N[C@@H](CC1CCC1)C(=O)O; S5 = C=CCCC[C@](C)(N)C(=O)O; βAla = NCCC(=O)O

Experiments:
[1] = Solubility assay (kinetic solubility, PBS pH 7); assay type: physicochemical; conditions: for solubility kinetic: pH 7, aqueous buffer, kinetic from dmso stock, read-out: Solubility
Summary of the method: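 Next, measure peak areas of sample and standard. Finally, multiply their ratio by the standard concentration to obtain solubility (µM).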

Ca Ski cell line = conditions: 72 h
Summary of the method: (§1)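 Compound dilution series (10 points, 3-fold, 10 mM top stock in DMSO) tested on overnight-plated Ca Ski cells in RPMI1640/10% FBS and on blasticidin-selected p53RE-bla HCT-116 cells in McCoy's 5A; read-out was CellTiter-Glo 2.0 luminescence after room-temperature equilibration.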

EPSA = assay type: physicochemical
in vitro = test: in vitro
Summary of the method: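 Azido-peptide permeability was read as loss of NanoBRET signal (donor 450 nm, acceptor 610 nm) after adding NanoBret618-azide at 10 μM final.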

[2] = Lactate dehydrogenase (LDH) release assay; assay type: cell-based
Summary of the method: (§2)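 LDH release, fluorometric membrane-integrity read-out; HCT116 with stable p53-responsive β-lactamase reporter; 8000 cells/well; 0.5% DMSO final; geometric mean, n≥3 biological replicates.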

[3] = tested on: CellSensor p53RE-bla HCT-116 Cell Line; conditions: 72 h
Summary of the method: as §1

[4] = Experimental LogD (partition coefficient); conditions: for logD: not stated, Partition Coeff LogD
HCT116 cells = test: Lactate dehydrogenase (LDH) release assay; assay type: cell-based
Summary of the method: as §2

[5] = tested on: Jump-In T-REx CHO-K1 BLA cells; test: cells; assay type: cell-based; conditions: Supplementary Table 1; 0% serum, 4 hours
[6] = Nanoclick permeability assay EC50
[7] = 0% FBS 4Hr, read-out: LDH: Cytotoxicity assay: EC50
[8] = 10% FBS 16Hr, read-out: LDH: Cytotoxicity assay: EC50

| Compound | solubility kinetic ([1]; pH 7, PBS) | EC50 (Ca Ski cell line) | EPSA (EPSA; EPSA) | cell entry EC50 (in vitro; [6]) | EC50 ([2]; LDH: Cytotoxicity assay: EC50) | EC50 [3] | logD [4] | Solubility ([1]; pH 7, PBS) | EPSA (EPSA) | Partition Coeff LogD [4] | LDH: Cytotoxicity assay: % Effect (HCT116 cells) | cell entry EC50 (in vitro) | EC50 [2, 7] | EC50 [2, 8] | LDH: Cytotoxicity assay: % Effect (HCT116 cells; 0% FBS 4Hr) | LDH: Cytotoxicity assay: % Effect (HCT116 cells; 10% FBS 16Hr) | off-target effects (LDH release and/or counterscreen activity) [5] | Solubility [1] |
| --- | --- | --- | --- | --- | --- | --- | --- | --- | --- | --- | --- | --- | --- | --- | --- | --- | --- | --- |
| CC(=O)N[C@@H](CCCCN=[N+]=[N-])C(=O)NCCC(=O)N[C@@H](CC(C)C)C(=O)N[C@H](C(=O)N[C@@H](Cc1ccccc1)C(=O)N[C@]1(C)CCCCCCC=CCCC[C@@](C)(C(=O)N[C@@H](C)C(=O)N[C@@H](C)C(=O)N[C@@H](Cc2ccccc2)C(=O)N[C@@H](C)C(=O)N[C@@H](C)C(=O)N[C@H](C)C(N)=O)NC(=O)[C@H](CC2CCC2)NC(=O)[C@H](CCC(N)=O)NC(=O)[C@H](C)NC(=O)[C@H](Cc2c[nH]c3ccccc23)NC(=O)[C@H](Cc2ccc(O)cc2)NC(=O)[C@H](CCC(=O)O)NC1=O)[C@@H](C)O [MP-228] (Ac-[Lys(N3)][βAla]LTF[R8]EYWAQ[Cba][S5]AAFAA[dA]-NH2; staple 6-13) | 2 µM (≈ 4.49 µg/mL) | 30.7 µM | 199 A^2 | 2.51 µM | > 50.7 µM |  |  |  |  |  |  |  |  |  |  |  |  |  |
| CC(=O)N[C@@H](CCCCN=[N+]=[N-])C(=O)NCCC(=O)N[C@@H](CC(C)C)C(=O)N[C@H](C(=O)N[C@@H](Cc1ccccc1)C(=O)N[C@]1(C)CCCCCCC=CCCC[C@@](C)(C(=O)N[C@@H](C)C(=O)N[C@@H](C)C(=O)N[C@@H](Cc2ccccc2)C(=O)N[C@@H](C)C(=O)N[C@@H](C)C(=O)N[C@H](Cc2ccccc2)C(N)=O)NC(=O)[C@H](CC2CCC2)NC(=O)[C@H](CCC(N)=O)NC(=O)[C@H](C)NC(=O)[C@H](Cc2c[nH]c3ccccc23)NC(=O)[C@H](Cc2ccc(O)cc2)NC(=O)[C@H](CCC(=O)O)NC1=O)[C@@H](C)O [MP-063] (Ac-[Lys(N3)][βAla]LTF[R8]EYWAQ[Cba][S5]AAFAA[dF]-NH2; staple 6-13) | 9 µM (≈ 20.9 µg/mL) | > 49.8 µM | 199 A^2 | 0.394 µM | > 50.7 µM | 2.78 µM |  |  |  |  |  |  |  |  |  |  |  |  |
| CC(=O)N[C@@H](CCCCN=[N+]=[N-])C(=O)NCCC(=O)N[C@@H](CC(C)C)C(=O)N[C@H](C(=O)N[C@@H](Cc1ccccc1)C(=O)N[C@]1(C)CCCCCCC=CCCC[C@@](C)(C(=O)N[C@@H](CO)C(=O)N[C@@H](C)C(=O)N[C@@H](C)C(N)=O)NC(=O)[C@H](CC2CCC2)NC(=O)[C@H](CCC(N)=O)NC(=O)[C@H](C)NC(=O)[C@H](CCC(=O)O)NC(=O)[C@H](Cc2ccc(O)cc2)NC(=O)[C@H](CCC(=O)O)NC1=O)[C@@H](C)O [MP-956] | 175 µM (≈ 335 µg/mL) | > 49.8 µM | 198 A^2 | 9.22 µM | > 50.7 µM |  | 1.7 |  |  |  |  |  |  |  |  |  |  |  |
| CC(=O)N[C@@H](CCCCN=[N+]=[N-])C(=O)NCCC(=O)N[C@@H](CC(C)C)C(=O)N[C@H](C(=O)N[C@@H](Cc1ccccc1)C(=O)N[C@]1(C)CCCCCCC=CCCC[C@@](C)(C(=O)N[C@@H](CO)C(=O)N[C@@H](C)C(=O)N[C@@H](C)C(N)=O)NC(=O)[C@H](CC2CCC2)NC(=O)[C@H](CCC(N)=O)NC(=O)[C@H](C)NC(=O)[C@H](Cc2c[nH]c3ccccc23)NC(=O)[C@H](CCC(=O)O)NC(=O)[C@H](CCC(=O)O)NC1=O)[C@@H](C)O [MP-842] | 157 µM (≈ 304 µg/mL) | > 49.8 µM | 216 A^2 | 0.297 µM | > 50.7 µM | 23.4 µM | 2.25 |  |  |  |  |  |  |  |  |  |  |  |
| CC(=O)N[C@@H](CCCCN=[N+]=[N-])C(=O)NCCC(=O)N[C@@H](CC(C)C)C(=O)N[C@H](C(=O)N[C@@H](Cc1ccccc1)C(=O)N[C@]1(C)CCCCCCC=CCCC[C@@](C)(C(=O)N[C@@H](CO)C(=O)N[C@@H](C)C(=O)N[C@@H](C)C(N)=O)NC(=O)[C@H](CCC(=O)O)NC(=O)[C@H](CCC(N)=O)NC(=O)[C@H](C)NC(=O)[C@H](Cc2c[nH]c3ccccc23)NC(=O)[C@H](Cc2ccc(O)cc2)NC(=O)[C@H](CCC(=O)O)NC1=O)[C@@H](C)O [MP-841] | 162 µM (≈ 320 µg/mL) | > 49.8 µM | 255 A^2 | 0.878 µM | > 50.7 µM |  | 2.06 |  |  |  |  |  |  |  |  |  |  |  |
| CC(=O)N[C@@H](CCC(=O)O)C(=O)N[C@@H](CCCCN=[N+]=[N-])C(=O)NCCCCCC(=O)N[C@H](C(=O)N[C@@H](CO)C(=O)N[C@@H](Cc1ccccc1)C(=O)N[C@]1(C)CCCCCCC=CCCC[C@@](C)(C(N)=O)NC(=O)[C@H](CC(C)C)NC(=O)[C@H](CC(C)C)NC(=O)[C@H](C)NC(=O)[C@H](Cc2c[nH]c3ccccc23)NC(=O)[C@H](Cc2ccc(O)cc2)NC(=O)[C@H](CCC(=O)O)NC1=O)[C@@H](C)O [MP-027] |  |  |  | 0.415 µM | > 50 µM |  |  | Poorly Behaved | Poorly Behaved | Poorly Behaved | 2.385% |  |  |  |  |  |  |  |
| CC(=O)N[C@@H](CCCCN=[N+]=[N-])C(=O)N[C@@H](CCCCN)C(=O)N[C@@H](CC(C)C)C(=O)N[C@H](C(=O)N[C@@H](Cc1ccccc1)C(=O)N[C@]1(C)CCCCCCC=CCCC[C@@](C)(C(=O)N[C@@H](CO)C(=O)N[C@@H](C)C(=O)N[C@@H](C)C(N)=O)NC(=O)[C@H](CC2CCC2)NC(=O)[C@H](CCC(N)=O)NC(=O)[C@H](C)NC(=O)[C@H](Cc2c[nH]c3ccccc23)NC(=O)[C@H](Cc2ccc(O)cc2)NC(=O)[C@H](CCC(=O)O)NC1=O)[C@@H](C)O [MP-025] | 3 µM (≈ 6.08 µg/mL) |  | 205 A^2 | 1.17 µM | > 50 µM |  | 2.83 |  |  |  | 3.386% |  |  |  |  |  |  |  |
| CC(=O)N[C@@H](CCCCN=[N+]=[N-])C(=O)NCCC(=O)N[C@@H](CC(C)C)C(=O)N[C@H](C(=O)N[C@@H](CCC(=O)O)C(=O)N[C@]1(C)CCCCCCC=CCCC[C@@](C)(C(=O)N[C@@H](CO)C(=O)N[C@@H](C)C(=O)N[C@@H](C)C(N)=O)NC(=O)[C@H](CC2CCC2)NC(=O)[C@H](CCC(N)=O)NC(=O)[C@H](C)NC(=O)[C@H](Cc2c[nH]c3ccccc23)NC(=O)[C@H](Cc2ccc(O)cc2)NC(=O)[C@H](CCC(=O)O)NC1=O)[C@@H](C)O [MP-843] | 151 µM (≈ 295 µg/mL) | > 49.8 µM | 208 A^2 | 0.597 µM | > 50.7 µM |  | 1.78 |  |  |  |  |  |  |  |  |  |  |  |
| CC(=O)N[C@@H](CCCCN=[N+]=[N-])C(=O)N[C@H](C(=O)N[C@@H](Cc1ccccc1)C(=O)N[C@]1(C)CCCCCCC=CCCC[C@@](C)(C(=O)N[C@@H](C)C(=O)N[C@@H](C)C(=O)N[C@@H](C)C(=O)N[C@@H](C)C(=O)N[C@@H](C)C(=O)N[C@H](C)C(N)=O)NC(=O)[C@H](CC2CCC2)NC(=O)[C@H](CCC(N)=O)NC(=O)[C@H](C)NC(=O)[C@H](Cc2c[nH]c3ccccc23)NC(=O)[C@H](Cc2ccc(O)cc2)NC(=O)[C@H](CCC(=O)O)NC1=O)[C@@H](C)O [MP-062] (Ac-[Lys(N3)]TF[R8]EYWAQ[Cba][S5]AAAAA[dA]-NH2; staple 4-11) |  |  | 201 A^2 |  |  |  |  | Poorly Behaved |  | Poorly Behaved |  | 2.08 µM | > 50.7 µM | > 50.7 µM | 5.433% | 10.66% |  |  |
| CC(=O)N[C@@H](CCCCN=[N+]=[N-])C(=O)NCCC(=O)N[C@@H](CC(C)C)C(=O)N[C@H](C(=O)N[C@@H](Cc1ccccc1)C(=O)N[C@]1(C)CCCCCCC=CCCC[C@@](C)(C(=O)N[C@@H](CCC(=O)O)C(=O)N[C@@H](CCC(=O)O)C(=O)N[C@@H](C)C(N)=O)NC(=O)[C@H](CC2CCC2)NC(=O)[C@H](CCC(N)=O)NC(=O)[C@H](CCC(=O)O)NC(=O)[C@H](Cc2c[nH]c3ccccc23)NC(=O)[C@H](Cc2ccc(O)cc2)NC(=O)[C@H](CCC(=O)O)NC1=O)[C@@H](C)O [MP-3684] (Ac-[Lys(N3)][βAla]LTF[R8]EYWEQ[Cba][S5]EEA-NH2; staple 6-13) |  |  |  |  |  |  | 1.89 |  | Poorly Behaved |  |  | 3.88 µM | > 50.7 µM | > 50.7 µM | 7.239% | 0.1213% | none |  |
| CC(=O)N[C@@H](CCCCN=[N+]=[N-])C(=O)NCCC(=O)N[C@@H](CC(C)C)C(=O)N[C@H](C(=O)N[C@@H](Cc1ccccc1)C(=O)N[C@]1(C)CCCCCCC=CCCC[C@@](C)(C(=O)N[C@@H](C)C(=O)N[C@@H](C)C(=O)N[C@@H](C)C(=O)N[C@@H](C)C(=O)N[C@@H](C)C(=O)N[C@@H](Cc2ccccc2)C(N)=O)NC(=O)[C@H](CC2CCC2)NC(=O)[C@H](CCC(N)=O)NC(=O)[C@H](C)NC(=O)[C@H](Cc2c[nH]c3ccccc23)NC(=O)[C@H](Cc2ccc(O)cc2)NC(=O)[C@H](CCC(=O)O)NC1=O)[C@@H](C)O [MP-060] (Ac-[Lys(N3)][βAla]LTF[R8]EYWAQ[Cba][S5]AAAAAF-NH2; staple 6-13) |  | > 49.8 µM | 198 A^2 | 1.09 µM | > 50.7 µM |  |  | Poorly Behaved |  | Poorly Behaved |  |  |  |  |  |  |  | P.B. |
